From US20070196406A1, “1,3-Dimethylbutyl carboxanilides for controlling undesirable micro-organisms” (priority 2003, published 2007)

system: not listed separately; test: logP determination by HPLC on a reversed-phase column (EEC Directive 79/831 Annex V.A8); format: physicochemical; conditions: reversed-phase C18 HPLC column, pH 2.3, C 18 reversed phase, 43° C.
Protocol: The logP values given in the Preparation Examples and tables above are determined in accordance with EEC Directive 79/831 Annex V.A8 by HPLC (High Performance Liquid Chromatography) on a reversed-phase column (C 18). Temperature: 43° C.
The determination is carried out in the acidic range at pH 2.3 using the mobile phases 0.1% aqueous phosphoric acid and acetonitrile; linear gradient from 10% acetonitrile to 90% acetonitrile.
Calibration is carried out using unbranched alkan-2-ones (with 3 to 16 carbon atoms) with known logP values (determination of the logP values by the retention times using linear interpolation between two successive alkanones).

Row | chromatographic logP | Structure (SMILES)
1 | 3.74 | CC(C)CC(C)c1ccccc1NC(=O)c1cn(C)nc1C(Cl)Cl (stereo not shown) [Example 1, 3-(dichloromethyl)-1-methyl-N-[2-(1,3-dimethylbutyl)phenyl]-1H-pyrazole-4-carboxamide]
2 | 3.64 | CC(C)CC(C)c1ccccc1NC(=O)c1cn(C)nc1C=O (stereo not shown) [Example 2, N-[2-(1,3-dimethylbutyl)phenyl]-3-formyl-1-methyl-1H-pyrazole-4-carboxamide]
3 | 4.45 | COc1nc(C)sc1C(=O)Nc1ccccc1C(C)CC(C)C (stereo not shown) [Example 3, N-[2-(1,3-dimethylbutyl)phenyl]-4-methoxy-2-methyl-1,3-thiazole-5-carboxamide]
4 | 2.68 | Cc1nc(O)c(C(=O)Nc2ccccc2C(C)CC(C)C)s1 (stereo not shown) [Example 4, N-[2-(1,3-dimethylbutyl)phenyl]-4-hydroxy-2-methyl-1,3-thiazole-5-carboxamide]
5 | 0.46 | COC(=O)c1cn(C)nc1C=O [Example X-1]
6 | 1.9 | CCOC(=O)c1sc(C)nc1OC [II-1]
7 | 0.77 | COc1nc(C)sc1C(=O)O [II-2]
8 | 1.14 | CCOC(=O)c1cn(C)nc1OC [II-4]
9 | 2.54 | CCOC(=O)c1sc(C)nc1OC(F)F [II-6]
10 | 1.29 | Cc1nc(OC(F)F)c(C(=O)O)s1 [II-7]
11 | -0.19 | Cn1cc(C(=O)O)c(C=O)n1 [XI-1]
12 | 1.8 | COC(=O)c1cn(C)nc1C(Cl)Cl [XII-1]

system: Venturia inaequalis; test: Venturia test (apple)/protective; format: in vivo; conditions: 240 h, apple plants, protective spray, evaluation 10 days after inoculation, read-out: Efficacy in %
Protocol: Venturia Test (Apple)/Protective
(§1) • Solvents: 24.5 parts by weight of acetone • 24.5 parts by weight of dimethylacetamide • Emulsifier: 1 part by weight of alkylaryl polyglycol ether
(§2) To produce a suitable preparation of active compound, 1 part by weight of active compound is mixed with the stated amounts of solvents and emulsifier, and the concentrate is diluted with water to the desired concentration.
To test for protective activity, young plants are sprayed with the preparation of active compound at the stated application rates. After the spray coating has dried on, the plants are inoculated with an aqueous conidia suspension of the apple scab pathogen Venturia inaequalis and then remain in an incubation cabinet about 20° C. and 100% relative atmospheric humidity for 1 day.
The plants are then placed in a greenhouse at about 21° C. and a relative atmospheric humidity of about 90%.
(§3) Evaluation is carried out 10 days after the inoculation. 0% means an efficacy which corresponds to that of the control, whereas an efficacy of 100% means that no infection is observed.

Row | Structure (SMILES) | pest or weed control at 100 g/ha [%]
13 | CC(C)CC(C)c1ccccc1NC(=O)c1scnc1Cl (stereo not shown) [drawing 94] | 99
14 | Cc1sccc1C(=O)Nc1ccccc1C(C)CC(C)C (stereo not shown) [drawing 95] | 100
15 | CC(C)CC(C)c1ccccc1NC(=O)c1ccoc1C(F)(F)F (stereo not shown) [drawing 96] | 96
16 | CC(C)CC(C)c1ccccc1NC(=O)c1cn(C)nc1Cl (stereo not shown) [drawing 97] | 100
17 | CC(C)CC(C)c1ccccc1NC(=O)c1cn(C)nc1C(C)F (stereo not shown) [drawing 98] | 100
18 | CC(C)CC(C)c1cc(F)ccc1NC(=O)c1cn(C)nc1C(F)(F)F (stereo not shown) [drawing 99] | 100
19 | CC(C)CC(C)c1cc(F)ccc1NC(=O)c1cn(C)nc1C(F)F (stereo not shown) [drawing 100] | 100
20 | Cc1sccc1C(=O)Nc1ccc(F)cc1C(C)CC(C)C (stereo not shown) [drawing 101] | 94
21 | Cc1nc(C(F)(F)F)c(C(=O)Nc2ccc(F)cc2C(C)CC(C)C)s1 (stereo not shown) [drawing 102] | 100
22 | Cc1ccsc1C(=O)Nc1ccc(F)cc1C(C)CC(C)C (stereo not shown) [drawing 103] | 100
23 | Cc1nc(C(F)F)c(C(=O)Nc2ccc(F)cc2C(C)CC(C)C)s1 (stereo not shown) [drawing 104] | 100
24 | CC1=C(C(=O)Nc2ccc(F)cc2C(C)CC(C)C)SCCO1 (stereo not shown) [drawing 105] | 100

system: Podosphaera leucotricha; test: Podosphaera test (apple)/protective; format: in vivo; conditions: 240 h, apple plants, protective spray, evaluation 10 days after inoculation, read-out: Efficacy in %
Protocol: Podosphaera Test (Apple)/Protective
• Solvents: 24.5 parts by weight of acetone • 24.5 parts by weight of dimethylacetamide • Emulsifier: 1 part by weight of alklylaryl polyglycol ether
as §2
To test for protective activity, young plants are sprayed with the preparation of active compound at the stated application rate. After the spray coating has dried on, the plants are inoculated with an aqueous spore suspension of the apple mildew pathogen Podosphaera leucotricha. The plants are then placed in a greenhouse at about 23° C. and a relative atmospheric humidity of about 70%.
as §3

Row | Structure (SMILES) | pest or weed control at 100 g/ha [%]
25 | CC(C)CC(C)c1ccccc1NC(=O)c1scnc1Cl (stereo not shown) [drawing 82] | 100
26 | Cc1sccc1C(=O)Nc1ccccc1C(C)CC(C)C (stereo not shown) [drawing 83] | 100
27 | CC(C)CC(C)c1ccccc1NC(=O)c1ccoc1C(F)(F)F (stereo not shown) [drawing 84] | 98
28 | CC(C)CC(C)c1ccccc1NC(=O)c1cn(C)nc1Cl (stereo not shown) [drawing 85] | 100
29 | CC(C)CC(C)c1ccccc1NC(=O)c1cn(C)nc1C(C)F (stereo not shown) [drawing 86] | 100
30 | CC(C)CC(C)c1cc(F)ccc1NC(=O)c1cn(C)nc1C(F)(F)F (stereo not shown) [drawing 87] | 88
31 | CC(C)CC(C)c1cc(F)ccc1NC(=O)c1cn(C)nc1C(F)F (stereo not shown) [drawing 88] | 100
32 | Cc1sccc1C(=O)Nc1ccc(F)cc1C(C)CC(C)C (stereo not shown) [drawing 89] | 100
33 | Cc1nc(C(F)(F)F)c(C(=O)Nc2ccc(F)cc2C(C)CC(C)C)s1 (stereo not shown) [drawing 90] | 100
34 | Cc1ccsc1C(=O)Nc1ccc(F)cc1C(C)CC(C)C (stereo not shown) [drawing 91] | 99
35 | Cc1nc(C(F)F)c(C(=O)Nc2ccc(F)cc2C(C)CC(C)C)s1 (stereo not shown) [drawing 92] | 100
36 | CC1=C(C(=O)Nc2ccc(F)cc2C(C)CC(C)C)SCCO1 (stereo not shown) [drawing 93] | 100

system: Botrytis cinerea; test: Botrytis test (bean)/protective; format: in vivo; conditions: 48 h, bean plants, protective spray, 100 g/ha, evaluation two days after inoculation, read-out: Efficacy in %
Protocol: Botrytis Test (Bean)/Protective
as §1
(§4) To produce a suitable preparation of active compound, 1 part by weight of active compound is mixed with the stated amounts of solvent and emulsifier, and the concentrate is diluted with water to the desired concentration.
To test for protective activity, young plants are sprayed with the preparation of active compound at the stated application rate. After the spray coating has dried on, 2 small pieces of agar colonized by Botrytis cinerea are placed under each leaf. The inoculated plants are placed in a dark chamber at about 20° C. and 100% relative atmospheric humidity.
Two days after the inoculation, the size of the infected areas on the leaves is evaluated. 0% means an efficacy which corresponds to that of the control, whereas an efficacy of 100% means that no infection is observed.

Row | Structure (SMILES) | pest or weed control at 100 g/ha [%]
37 | CC(C)CC(C)c1ccccc1NC(=O)c1scnc1Cl (stereo not shown) [drawing 106] | 99
38 | Cc1sccc1C(=O)Nc1ccccc1C(C)CC(C)C (stereo not shown) [drawing 107] | 97
39 | CC(C)CC(C)c1ccccc1NC(=O)c1cn(C)nc1Cl (stereo not shown) [drawing 108] | 100

same assay, conditions: 48 h, bean plants, protective spray, 500 g/ha, evaluation two days after inoculation, read-out: Efficacy in %

Row | Structure (SMILES) | pest or weed control at 500 g/ha [%]
40 | CC(C)CC(C)c1ccccc1NC(=O)c1cn(C)nc1C(C)F (stereo not shown) [drawing 109] | 99
41 | CC(C)CC(C)c1cc(F)ccc1NC(=O)c1cn(C)nc1C(F)(F)F (stereo not shown) [drawing 110] | 99
42 | CC(C)CC(C)c1cc(F)ccc1NC(=O)c1cn(C)nc1C(F)F (stereo not shown) [drawing 111] | 100
43 | Cc1sccc1C(=O)Nc1ccc(F)cc1C(C)CC(C)C (stereo not shown) [drawing 112] | 100
44 | Cc1nc(C(F)(F)F)c(C(=O)Nc2ccc(F)cc2C(C)CC(C)C)s1 (stereo not shown) [drawing 113] | 100
45 | Cc1ccsc1C(=O)Nc1ccc(F)cc1C(C)CC(C)C (stereo not shown) [drawing 114] | 98
46 | Cc1nc(C(F)F)c(C(=O)Nc2ccc(F)cc2C(C)CC(C)C)s1 (stereo not shown) [drawing 115] | 100
47 | CC1=C(C(=O)Nc2ccc(F)cc2C(C)CC(C)C)SCCO1 (stereo not shown) [drawing 116] | 100

system: Puccinia recondita; test: Puccinia test (wheat)/protective; format: in vivo; conditions: 240 h, wheat plants, protective spray, evaluation 10 days after inoculation, read-out: Efficacy in %
Protocol: Puccinia Test (Wheat)/Protective
Solvent: 50 parts by weight of N,N-dimethylacetamide
Emulsifier: 1 part by weight of alkylaryl polyglycol ether
as §4
To test for protective activity, young plants are sprayed with the preparation of active compound at the stated application rate. After the spray coating has dried on, the plants are sprayed with a conidia suspension of Puccinia recondita. The plants remain in an incubation cabinet at 20° C. and 100% relative atmospheric humidity for 48 hours.
The plants are then placed in a greenhouse at a temperature of about 20° C. and a relative atmospheric humidity of 80% to promote the development of rust pustules.
as §3

Row | Structure (SMILES) | pest or weed control at 500 g/ha [%]
48 | Cc1nc(Cl)sc1C(=O)Nc1ccccc1C(C)CC(C)C (stereo not shown) | 100
49 | CC(C)CC(C)c1cc(F)ccc1NC(=O)c1cccnc1Cl (stereo not shown) | 100
50 | CC(C)CC(C)c1cc(F)ccc1NC(=O)c1cn(C)nc1Cl (stereo not shown) | 100
51 | Cc1occc1C(=O)Nc1ccc(F)cc1C(C)CC(C)C (stereo not shown) | 100
52 | Cc1sccc1C(=O)Nc1ccccc1C(C)CC(C)C (stereo not shown) [drawing 118] | 100
53 | CC(C)CC(C)c1ccccc1NC(=O)c1ccoc1C(F)(F)F (stereo not shown) [drawing 119] | 100
54 | CC(C)CC(C)c1ccccc1NC(=O)c1cn(C)nc1Cl (stereo not shown) [drawing 120] | 100
55 | CC(C)CC(C)c1cc(F)ccc1NC(=O)c1cn(C)nc1C(F)(F)F (stereo not shown) [drawing 121] | 100
56 | CC(C)CC(C)c1cc(F)ccc1NC(=O)c1cn(C)nc1C(F)F (stereo not shown) [drawing 124] | 100
57 | Cc1sccc1C(=O)Nc1ccc(F)cc1C(C)CC(C)C (stereo not shown) [drawing 125] | 100
58 | Cc1nc(C(F)(F)F)c(C(=O)Nc2ccc(F)cc2C(C)CC(C)C)s1 (stereo not shown) [drawing 127] | 100
59 | Cc1ccsc1C(=O)Nc1ccc(F)cc1C(C)CC(C)C (stereo not shown) [drawing 128] | 100
60 | Cc1nc(C(F)F)c(C(=O)Nc2ccc(F)cc2C(C)CC(C)C)s1 (stereo not shown) [drawing 129] | 100
61 | CC1=C(C(=O)Nc2ccc(F)cc2C(C)CC(C)C)SCCO1 (stereo not shown) [drawing 130] | 100
